From ChEMBL document CHEMBL5528047, “A Potent SOS1 PROTAC Degrader with Synergistic Efficacy in Combination with KRASG12C Inhibitor” (J Med Chem, 2024) come the findings set out here.

The subject of one assay is K562. Briefly: Antiproliferative activity against human K562 cells incubated for 72 hrs by CCK8 assay. Type of assay: functional, cell-based. As to conditions: K562, 72 h. For orientation: Tetrazolium assays rely on reduction of a dye to a coloured formazan, in cell work by metabolically active cells.
The subject of the next assay is MIA PaCa-2. The experiment in a line: Antiproliferative activity against human MIA PaCa-2 cells incubated for 72 hrs by CCK8 assay. Format: functional, cell-based. Conditions: MIA PaCa-2, 72 h.
Assay [1] has as its target T1, von Hippel-Lindau disease tumor suppressor/Son of sevenless homolog 1 (Homo sapiens, UniProt Q07889+P40337). Briefly: Protac activity at VHL/SOS1 in human PANC-1 cells assessed as SOS1 degradation at 1 uM by Western blotting analysis relative to control. Format: cell-based. Background: In western blotting, separated proteins are transferred to a membrane and probed.
Target sequence in this assay (P40337 whole entry, looked up): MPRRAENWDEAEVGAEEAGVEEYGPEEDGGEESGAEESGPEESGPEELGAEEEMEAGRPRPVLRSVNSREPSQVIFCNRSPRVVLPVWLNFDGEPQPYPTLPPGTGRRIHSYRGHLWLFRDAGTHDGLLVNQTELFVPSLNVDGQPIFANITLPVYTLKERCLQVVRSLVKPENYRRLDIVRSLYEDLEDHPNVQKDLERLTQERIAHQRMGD
Target sequence in this assay (Q07889 whole entry, looked up): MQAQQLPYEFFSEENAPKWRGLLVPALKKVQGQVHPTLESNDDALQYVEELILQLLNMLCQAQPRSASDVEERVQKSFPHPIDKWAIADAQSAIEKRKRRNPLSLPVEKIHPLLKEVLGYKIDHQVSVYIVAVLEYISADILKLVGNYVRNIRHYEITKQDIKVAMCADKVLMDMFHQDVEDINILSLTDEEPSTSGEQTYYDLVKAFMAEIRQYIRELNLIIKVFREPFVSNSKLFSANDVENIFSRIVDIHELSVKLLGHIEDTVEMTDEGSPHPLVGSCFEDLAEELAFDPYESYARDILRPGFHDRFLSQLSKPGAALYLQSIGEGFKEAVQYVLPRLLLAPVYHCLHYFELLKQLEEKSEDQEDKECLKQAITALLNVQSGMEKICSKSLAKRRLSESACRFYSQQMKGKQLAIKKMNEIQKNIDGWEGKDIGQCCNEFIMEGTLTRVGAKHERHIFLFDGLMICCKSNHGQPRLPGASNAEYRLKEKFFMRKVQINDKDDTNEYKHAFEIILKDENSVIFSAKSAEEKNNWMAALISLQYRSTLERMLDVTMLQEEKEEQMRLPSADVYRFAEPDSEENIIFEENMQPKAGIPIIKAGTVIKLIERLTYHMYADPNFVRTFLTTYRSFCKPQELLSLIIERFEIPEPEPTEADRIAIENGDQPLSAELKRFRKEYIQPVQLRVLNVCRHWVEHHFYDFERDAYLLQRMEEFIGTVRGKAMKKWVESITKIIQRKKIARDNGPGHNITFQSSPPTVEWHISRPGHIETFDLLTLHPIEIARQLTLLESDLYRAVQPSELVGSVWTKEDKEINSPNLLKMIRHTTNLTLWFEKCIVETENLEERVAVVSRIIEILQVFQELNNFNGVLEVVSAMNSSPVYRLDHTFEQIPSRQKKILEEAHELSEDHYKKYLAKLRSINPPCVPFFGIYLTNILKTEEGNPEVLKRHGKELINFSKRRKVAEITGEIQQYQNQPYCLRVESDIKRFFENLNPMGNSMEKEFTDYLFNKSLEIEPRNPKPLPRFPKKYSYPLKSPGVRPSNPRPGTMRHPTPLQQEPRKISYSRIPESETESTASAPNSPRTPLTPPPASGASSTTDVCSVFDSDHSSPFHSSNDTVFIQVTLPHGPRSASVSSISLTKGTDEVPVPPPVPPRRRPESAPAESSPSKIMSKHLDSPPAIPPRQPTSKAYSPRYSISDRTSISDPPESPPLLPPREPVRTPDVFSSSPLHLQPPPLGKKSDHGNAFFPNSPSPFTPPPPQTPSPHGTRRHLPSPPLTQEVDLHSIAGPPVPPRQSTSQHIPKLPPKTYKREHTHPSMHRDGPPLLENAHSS

Assay [2] addresses T1, von Hippel-Lindau disease tumor suppressor/Son of sevenless homolog 1. Briefly: Protac activity at VHL/SOS1 in human PANC-1 cells assessed as SOS1 degradation at 10 uM by Western blotting analysis relative to control. Type of assay: cell-based.
Target sequence in this assay (P40337 whole entry, looked up): as the sequence (P40337 whole entry, looked up) above
Target sequence in this assay (Q07889 whole entry, looked up): as the sequence (Q07889 whole entry, looked up) above
Assay [3] has the same target. The experiment in a line: Protac activity at VHL/SOS1 in human K562 cells assessed as SOS1 degradation at 1 uM by Western blotting analysis relative to control. Format: cell-based.
Target sequence in this assay (P40337 whole entry, looked up): as the sequence (P40337 whole entry, looked up) above
Target sequence in this assay (Q07889 whole entry, looked up): as the sequence (Q07889 whole entry, looked up) above
The target is the same in assay [4]. Briefly: Protac activity at VHL/SOS1 in human K562 cells assessed as SOS1 degradation at 10 uM by Western blotting analysis relative to control. Format: cell-based.
Target sequence in this assay (P40337 whole entry, looked up): as the sequence (P40337 whole entry, looked up) above
Target sequence in this assay (Q07889 whole entry, looked up): as the sequence (Q07889 whole entry, looked up) above
The target is the same in assay [5]. The experiment in a line: Protac activity at VHL/SOS1 in human K562 cells assessed as SOS1 degradation incubated for 24 hrs by Western blotting analysis. Type of assay: cell-based.
For assay [6] the target is unchanged. The experiment in a line: Protac activity at VHL/SOS1 in human PANC-1 cells assessed as SOS1 degradation incubated for 24 hrs by Western blotting analysis. Type of assay: cell-based.
For assay [7] the target is unchanged. Briefly: Protac activity at VHL/SOS1 in human MIA PaCa-2 cells assessed as SOS1 degradation incubated for 24 hrs by Western blotting analysis. Type of assay: cell-based.
The target is the same in assay [8]. The experiment in a line: Protac activity at VHL/SOS1 in human NCI-H358 cells assessed as SOS1 degradation incubated for 24 hrs by Western blotting analysis. Type of assay: cell-based.

As usually defined, the IC50 is the concentration at which inhibition is half-maximal. A lower IC50 goes with greater potency. Regarding `COc1cc2nc(C)nc(N[C@H](C)c3cc(N)cc(C(F)(F)F)c3)c2cc1O[C@H]1CCOC1`, the results for the IC50 in the assay with K562 and in the assay with MIA PaCa-2 were 1420 nM and 29 nM, respectively.

For orientation: DC50 means the midpoint of the concentration-degradation curve. `COc1cc2nc(C)nc(N[C@H](C)c3cc(-c4ccccc4CNCCCCCCC(=O)N[C@H](C(=O)N4C[C@H](O)C[C@H]4C(=O)NCc4ccc(-c5scnc5C)cc4)C(C)(C)C)cs3)c2cc1OC`: the Activity in [1] is 44%; in assay [2] it was 75.1%; in [3], 18.9%; in assay [4] it was 80.1%; in assay [5], “Dose-Dependent Effect”; in assay [6], “Dose-Dependent Effect”. Further, the Activity result in assay [7] and in assay [8] was “Dose-Dependent Effect” each time. Besides, the DC50 is 776 nM in [5], 701 nM in [6], 870 nM in assay [7] and 910 nM in assay [8].
